Assays:
Assay in all cases: radiometric filter-binding kinase assay
[1] = target: ULK2 (human) (UniProt Q8IYT8)
[2] = target: SIK3 (human) (UniProt Q9Y2K2)
[3] = test system: OXSR1 (human), O95747 [T185E]
[4] = target: TTBK1 (human) (UniProt Q5TCY1)
[5] = target: DDR2 (human) (UniProt Q16832)
[6] = target: IRAK1 (human) (UniProt P51617)
[7] = target: ULK1 (human) (UniProt O75385)
[8] = target: PDGFRA (human) (UniProt P16234)
[9] = target: ABL1 (human) (UniProt P00519)
[10] = target: PRKCG (human) (UniProt P05129)
[11] = target: CDK9 CCNT1 (human) (UniProt P50750+O60563)
[12] = target: TESK1 (human) (UniProt Q15569)
[13] = target: EIF2AK3 (human) (UniProt Q9NZJ5)
[14] = target: TEK (human) (UniProt Q02763)
[15] = target: TTBK2 (human) (UniProt Q6IQ55)
[16] = target: STK24 (human) (UniProt Q9Y6E0)
[17] = target: STK33 (human) (UniProt Q9BYT3)
[18] = target: MAP4K5 (human) (UniProt Q9Y4K4)
[19] = target: MAPK7 (human) (UniProt Q13164)
[20] = target: PRKAA1 PRKAB2 PRKAG1 (human) (UniProt O43741+Q13131+P54619)
[21] = target: ZAP70 (human) (UniProt P43403)
[22] = target: TLK1 (human) (UniProt Q9UKI8)
[23] = target: TSSK1B (human) (UniProt Q9BXA7)
[24] = target: CSNK1G2 (human) (UniProt P78368)
[25] = target: SIK2 (human) (UniProt Q9H0K1)
[26] = target: WNK1 (human) (UniProt Q9H4A3)
[27] = test system: TGFBR1 (human), P36897 [T204D]
[28] = target: MAP4K3 (human) (UniProt Q8IVH8)
[29] = target: MYLK (human) (UniProt Q15746)
[30] = target: PTK6 (human) (UniProt Q13882)
[31] = target: STK16 (human) (UniProt O75716)

Chain of ULK2 (human) (Q8IYT8 whole entry, looked up): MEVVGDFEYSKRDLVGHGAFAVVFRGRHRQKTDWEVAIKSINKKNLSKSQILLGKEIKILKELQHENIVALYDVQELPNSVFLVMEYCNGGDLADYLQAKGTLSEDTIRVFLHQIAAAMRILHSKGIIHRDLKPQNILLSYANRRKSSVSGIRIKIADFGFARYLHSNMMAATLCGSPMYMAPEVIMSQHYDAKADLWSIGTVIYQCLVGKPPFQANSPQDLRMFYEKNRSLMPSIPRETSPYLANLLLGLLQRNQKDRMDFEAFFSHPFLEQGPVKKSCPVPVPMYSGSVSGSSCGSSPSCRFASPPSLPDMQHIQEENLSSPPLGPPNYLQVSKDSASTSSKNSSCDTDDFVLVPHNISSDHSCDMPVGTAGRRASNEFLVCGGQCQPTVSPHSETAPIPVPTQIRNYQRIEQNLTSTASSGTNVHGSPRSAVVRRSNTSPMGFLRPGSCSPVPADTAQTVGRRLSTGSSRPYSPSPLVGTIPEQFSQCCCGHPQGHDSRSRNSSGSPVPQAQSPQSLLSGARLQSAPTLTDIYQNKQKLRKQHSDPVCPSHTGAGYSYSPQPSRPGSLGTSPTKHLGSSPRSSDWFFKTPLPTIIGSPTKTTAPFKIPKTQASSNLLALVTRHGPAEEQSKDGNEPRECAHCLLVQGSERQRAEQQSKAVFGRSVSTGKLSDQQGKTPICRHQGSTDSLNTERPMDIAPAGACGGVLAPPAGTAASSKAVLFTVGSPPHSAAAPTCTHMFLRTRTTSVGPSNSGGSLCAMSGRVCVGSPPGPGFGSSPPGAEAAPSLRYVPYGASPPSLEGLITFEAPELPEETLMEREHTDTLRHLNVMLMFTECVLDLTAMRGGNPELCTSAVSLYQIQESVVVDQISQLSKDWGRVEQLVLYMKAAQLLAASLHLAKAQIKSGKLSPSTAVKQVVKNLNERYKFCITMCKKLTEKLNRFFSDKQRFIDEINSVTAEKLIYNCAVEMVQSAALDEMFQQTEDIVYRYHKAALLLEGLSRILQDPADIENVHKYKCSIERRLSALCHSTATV
Chain of TGFBR1 (human), P36897 [T204D] (P36897 whole entry T204D, looked up): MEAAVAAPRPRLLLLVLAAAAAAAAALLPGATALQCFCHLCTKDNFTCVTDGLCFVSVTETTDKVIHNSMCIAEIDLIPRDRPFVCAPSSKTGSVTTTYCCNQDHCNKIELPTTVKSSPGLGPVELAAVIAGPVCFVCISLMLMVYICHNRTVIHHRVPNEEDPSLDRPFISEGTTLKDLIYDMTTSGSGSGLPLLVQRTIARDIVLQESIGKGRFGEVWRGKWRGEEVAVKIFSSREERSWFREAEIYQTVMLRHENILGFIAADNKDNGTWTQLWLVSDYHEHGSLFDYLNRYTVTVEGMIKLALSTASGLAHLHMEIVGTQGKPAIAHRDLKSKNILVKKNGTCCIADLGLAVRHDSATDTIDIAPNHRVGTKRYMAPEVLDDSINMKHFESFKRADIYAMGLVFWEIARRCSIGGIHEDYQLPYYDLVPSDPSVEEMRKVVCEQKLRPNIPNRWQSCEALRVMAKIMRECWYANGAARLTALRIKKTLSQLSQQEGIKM
Chain of STK24 (human) (Q9Y6E0 whole entry, looked up): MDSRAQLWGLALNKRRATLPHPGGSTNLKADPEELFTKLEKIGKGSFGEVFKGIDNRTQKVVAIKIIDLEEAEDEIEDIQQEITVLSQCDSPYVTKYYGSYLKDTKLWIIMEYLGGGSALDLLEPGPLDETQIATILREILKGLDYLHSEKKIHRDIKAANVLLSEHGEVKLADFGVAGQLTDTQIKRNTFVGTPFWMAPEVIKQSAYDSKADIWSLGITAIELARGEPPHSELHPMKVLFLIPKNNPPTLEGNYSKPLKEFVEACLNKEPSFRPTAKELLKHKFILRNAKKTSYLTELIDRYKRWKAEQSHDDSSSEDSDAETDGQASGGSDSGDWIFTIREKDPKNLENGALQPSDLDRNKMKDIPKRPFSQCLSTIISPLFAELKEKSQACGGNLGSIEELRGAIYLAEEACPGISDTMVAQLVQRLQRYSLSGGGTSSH
Chain of ZAP70 (human) (P43403 whole entry, looked up): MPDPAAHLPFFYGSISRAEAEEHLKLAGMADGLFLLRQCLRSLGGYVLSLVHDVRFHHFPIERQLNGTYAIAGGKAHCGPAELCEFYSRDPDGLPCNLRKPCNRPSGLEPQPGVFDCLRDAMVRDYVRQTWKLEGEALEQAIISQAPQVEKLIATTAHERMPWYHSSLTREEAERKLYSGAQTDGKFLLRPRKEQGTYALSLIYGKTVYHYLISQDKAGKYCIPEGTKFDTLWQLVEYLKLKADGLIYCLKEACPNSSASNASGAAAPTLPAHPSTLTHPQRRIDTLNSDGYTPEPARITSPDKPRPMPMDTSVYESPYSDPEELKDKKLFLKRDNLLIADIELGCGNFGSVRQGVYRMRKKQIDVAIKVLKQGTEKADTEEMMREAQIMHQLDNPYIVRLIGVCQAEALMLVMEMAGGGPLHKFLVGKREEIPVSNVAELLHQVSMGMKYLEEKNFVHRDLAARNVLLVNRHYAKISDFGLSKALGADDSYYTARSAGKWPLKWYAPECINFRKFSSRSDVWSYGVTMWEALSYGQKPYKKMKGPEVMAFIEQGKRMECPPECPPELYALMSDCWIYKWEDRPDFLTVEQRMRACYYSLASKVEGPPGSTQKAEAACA
Chain of PRKAA1 PRKAB2 PRKAG1 (human) (O43741 whole entry, looked up): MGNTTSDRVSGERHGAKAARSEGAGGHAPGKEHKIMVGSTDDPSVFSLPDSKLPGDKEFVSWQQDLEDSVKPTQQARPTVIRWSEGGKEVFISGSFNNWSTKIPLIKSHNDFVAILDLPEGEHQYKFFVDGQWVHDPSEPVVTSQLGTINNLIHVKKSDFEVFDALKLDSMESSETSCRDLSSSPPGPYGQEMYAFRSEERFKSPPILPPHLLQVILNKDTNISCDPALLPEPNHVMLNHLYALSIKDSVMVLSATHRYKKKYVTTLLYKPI
Chain of PRKAA1 PRKAB2 PRKAG1 (human) (P54619 whole entry, looked up): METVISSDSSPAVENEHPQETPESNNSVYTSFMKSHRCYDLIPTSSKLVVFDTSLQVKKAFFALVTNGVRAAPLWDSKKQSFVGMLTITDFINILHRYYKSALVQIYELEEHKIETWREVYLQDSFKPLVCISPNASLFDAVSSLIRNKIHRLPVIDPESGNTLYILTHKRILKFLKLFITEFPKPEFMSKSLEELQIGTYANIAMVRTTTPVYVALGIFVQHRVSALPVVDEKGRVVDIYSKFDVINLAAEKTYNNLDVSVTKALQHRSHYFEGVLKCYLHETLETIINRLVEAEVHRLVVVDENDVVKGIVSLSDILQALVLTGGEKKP
Chain of PRKAA1 PRKAB2 PRKAG1 (human) (Q13131 whole entry, looked up): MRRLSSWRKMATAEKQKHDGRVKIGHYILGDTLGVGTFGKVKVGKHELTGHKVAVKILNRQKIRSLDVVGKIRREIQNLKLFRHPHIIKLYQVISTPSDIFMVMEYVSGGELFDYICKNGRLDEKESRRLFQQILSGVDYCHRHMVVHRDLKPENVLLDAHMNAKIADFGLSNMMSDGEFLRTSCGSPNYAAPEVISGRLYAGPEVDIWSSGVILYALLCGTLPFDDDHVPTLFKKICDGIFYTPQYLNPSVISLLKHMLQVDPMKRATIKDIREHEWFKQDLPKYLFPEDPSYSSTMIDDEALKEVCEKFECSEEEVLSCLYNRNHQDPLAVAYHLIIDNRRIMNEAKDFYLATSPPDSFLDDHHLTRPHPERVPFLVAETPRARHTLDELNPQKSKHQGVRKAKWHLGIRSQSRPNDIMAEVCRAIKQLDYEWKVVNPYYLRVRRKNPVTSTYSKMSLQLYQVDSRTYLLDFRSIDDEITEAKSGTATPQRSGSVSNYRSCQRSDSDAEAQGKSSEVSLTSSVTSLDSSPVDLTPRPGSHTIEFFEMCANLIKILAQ
Chain of TEK (human) (Q02763 whole entry, looked up): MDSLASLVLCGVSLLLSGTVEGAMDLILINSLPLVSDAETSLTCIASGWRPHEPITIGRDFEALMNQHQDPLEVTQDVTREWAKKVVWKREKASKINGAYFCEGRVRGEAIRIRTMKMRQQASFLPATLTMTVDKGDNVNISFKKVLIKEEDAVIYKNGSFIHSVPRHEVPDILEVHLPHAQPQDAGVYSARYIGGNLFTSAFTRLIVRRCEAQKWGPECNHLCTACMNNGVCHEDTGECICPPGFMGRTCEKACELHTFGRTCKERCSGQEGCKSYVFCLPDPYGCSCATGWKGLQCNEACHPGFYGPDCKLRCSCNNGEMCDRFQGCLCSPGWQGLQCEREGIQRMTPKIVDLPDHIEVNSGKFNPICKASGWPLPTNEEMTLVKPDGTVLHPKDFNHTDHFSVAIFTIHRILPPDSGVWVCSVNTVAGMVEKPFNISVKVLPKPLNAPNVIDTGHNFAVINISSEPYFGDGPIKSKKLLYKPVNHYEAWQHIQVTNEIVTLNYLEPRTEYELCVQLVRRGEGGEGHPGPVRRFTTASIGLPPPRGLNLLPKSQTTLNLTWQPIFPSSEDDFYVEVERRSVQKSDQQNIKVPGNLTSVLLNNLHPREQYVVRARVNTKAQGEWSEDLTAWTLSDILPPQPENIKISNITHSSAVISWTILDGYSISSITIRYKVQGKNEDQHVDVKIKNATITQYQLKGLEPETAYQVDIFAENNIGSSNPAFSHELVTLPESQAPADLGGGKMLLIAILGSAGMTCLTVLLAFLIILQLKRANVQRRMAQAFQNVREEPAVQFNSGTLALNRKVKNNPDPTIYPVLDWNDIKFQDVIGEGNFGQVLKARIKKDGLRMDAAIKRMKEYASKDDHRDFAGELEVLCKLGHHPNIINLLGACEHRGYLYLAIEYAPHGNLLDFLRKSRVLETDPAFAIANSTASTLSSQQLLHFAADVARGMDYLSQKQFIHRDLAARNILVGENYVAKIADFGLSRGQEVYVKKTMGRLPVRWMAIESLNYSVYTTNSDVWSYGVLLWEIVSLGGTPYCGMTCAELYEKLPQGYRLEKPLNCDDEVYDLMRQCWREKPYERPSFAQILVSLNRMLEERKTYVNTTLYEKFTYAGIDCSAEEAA

COC(=O)/C=C/C(=O)OC
residual activity ([1]; compound 10.0 µM): 106% | residual activity ([1]; compound 100.0 µM): 109% | residual activity ([1]; compound 1000.0 µM): 109% | residual activity ([2]; compound 10.0 µM): 98% | residual activity ([2]; compound 1000.0 µM): 110% | residual activity ([3]; compound 10.0 µM): 96% | residual activity ([3]; compound 100.0 µM): 107% | residual activity ([3]; compound 1000.0 µM): 116% | residual activity ([4]; compound 10.0 µM): 88% | residual activity ([4]; compound 100.0 µM): 101% | residual activity ([5]; compound 10.0 µM): 103% | residual activity ([5]; compound 100.0 µM): 100% | residual activity ([6]; compound 10.0 µM): 101% | residual activity ([6]; compound 100.0 µM): 100% | residual activity ([6]; compound 1000.0 µM): 97% | residual activity ([7]; compound 10.0 µM): 97% | residual activity ([7]; compound 100.0 µM): 99% | residual activity ([7]; compound 1000.0 µM): 103% | residual activity ([8]; compound 10.0 µM): 101% | residual activity ([8]; compound 100.0 µM): 103% | residual activity ([8]; compound 1000.0 µM): 104% | residual activity ([9]; compound 10.0 µM): 98% | residual activity ([9]; compound 100.0 µM): 105% | residual activity ([9]; compound 1000.0 µM): 95% | residual activity ([10]; compound 10.0 µM): 106% | residual activity ([10]; compound 100.0 µM): 113% | residual activity ([10]; compound 1000.0 µM): 114% | residual activity ([11]; compound 10.0 µM): 91% | residual activity ([11]; compound 100.0 µM): 98% | residual activity ([11]; compound 1000.0 µM): 103% | residual activity ([12]; compound 10.0 µM): 84% | residual activity ([12]; compound 100.0 µM): 89% | residual activity ([12]; compound 1000.0 µM): 109% | residual activity ([13]; compound 10.0 µM): 95% | residual activity ([13]; compound 100.0 µM): 107% | residual activity ([14]; compound 10.0 µM): 92% | residual activity ([14]; compound 100.0 µM): 100% | residual activity ([14]; compound 1000.0 µM): 99% | residual activity ([15]; compound 10.0 µM): 96% | residual activity ([15]; compound 100.0 µM): 99% | residual activity ([15]; compound 1000.0 µM): 96% | residual activity ([16]; compound 100.0 µM): 104% | residual activity ([16]; compound 1000.0 µM): 112% | residual activity ([17]; compound 10.0 µM): 93% | residual activity ([17]; compound 100.0 µM): 99% | residual activity ([17]; compound 1000.0 µM): 102% | residual activity ([18]; compound 10.0 µM): 91% | residual activity ([18]; compound 100.0 µM): 87% | residual activity ([19]; compound 10.0 µM): 88% | residual activity ([19]; compound 100.0 µM): 94% | residual activity ([19]; compound 1000.0 µM): 97% | residual activity ([20]; compound 10.0 µM): 87% | residual activity ([20]; compound 100.0 µM): 95% | residual activity ([20]; compound 1000.0 µM): 102% | residual activity ([21]; compound 10.0 µM): 116% | residual activity ([21]; compound 100.0 µM): 116% | residual activity ([21]; compound 1000.0 µM): 112% | residual activity ([22]; compound 10.0 µM): 103% | residual activity ([22]; compound 100.0 µM): 117% | residual activity ([22]; compound 1000.0 µM): 110% | residual activity ([23]; compound 10.0 µM): 73% | residual activity ([23]; compound 100.0 µM): 85% | residual activity ([23]; compound 1000.0 µM): 80% | residual activity ([24]; compound 10.0 µM): 92% | residual activity ([24]; compound 100.0 µM): 101% | residual activity ([24]; compound 1000.0 µM): 101% | residual activity ([25]; compound 10.0 µM): 82% | residual activity ([25]; compound 100.0 µM): 94% | residual activity ([25]; compound 1000.0 µM): 103% | residual activity ([26]; compound 10.0 µM): 109% | residual activity ([26]; compound 100.0 µM): 104% | residual activity ([26]; compound 1000.0 µM): 114% | residual activity ([27]; compound 10.0 µM): 93% | residual activity ([27]; compound 1000.0 µM): 95% | residual activity ([28]; compound 10.0 µM): 92% | residual activity ([28]; compound 100.0 µM): 81% | residual activity ([28]; compound 1000.0 µM): 85% | residual activity ([29]; compound 100.0 µM): 99% | residual activity ([29]; compound 1000.0 µM): 102% | residual activity ([30]; compound 10.0 µM): 102% | residual activity ([30]; compound 100.0 µM): 112% | residual activity ([30]; compound 1000.0 µM): 110% | residual activity ([31]; compound 10.0 µM): 114% | residual activity ([31]; compound 100.0 µM): 116% | residual activity ([31]; compound 1000.0 µM): 109%

CCn1c(-c2nonc2N)nc2cncc(CNC3CCNCC3)c21
residual activity ([1]; compound 0.1 µM): 93% | residual activity ([1]; compound 1.0 µM): 98% | residual activity ([1]; compound 10.0 µM): 73% | residual activity ([2]; compound 0.1 µM): 89% | residual activity ([2]; compound 1.0 µM): 94% | residual activity ([2]; compound 10.0 µM): 89% | residual activity ([3]; compound 0.1 µM): 107% | residual activity ([3]; compound 1.0 µM): 102% | residual activity ([3]; compound 10.0 µM): 97% | residual activity ([4]; compound 0.1 µM): 104% | residual activity ([4]; compound 1.0 µM): 100% | residual activity ([4]; compound 10.0 µM): 91% | residual activity ([5]; compound 0.1 µM): 108% | residual activity ([5]; compound 1.0 µM): 97% | residual activity ([5]; compound 10.0 µM): 104% | residual activity ([6]; compound 0.1 µM): 99% | residual activity ([6]; compound 1.0 µM): 103% | residual activity ([6]; compound 10.0 µM): 75% | residual activity ([7]; compound 0.1 µM): 83% | residual activity ([7]; compound 1.0 µM): 74% | residual activity ([7]; compound 10.0 µM): 43% | residual activity ([8]; compound 0.1 µM): 120% | residual activity ([8]; compound 1.0 µM): 101% | residual activity ([8]; compound 10.0 µM): 99% | residual activity ([9]; compound 0.1 µM): 102% | residual activity ([9]; compound 1.0 µM): 109% | residual activity ([9]; compound 10.0 µM): 96% | residual activity ([10]; compound 0.1 µM): 96% | residual activity ([10]; compound 1.0 µM): 80% | residual activity ([10]; compound 10.0 µM): 46% | residual activity ([11]; compound 0.1 µM): 103% | residual activity ([11]; compound 1.0 µM): 115% | residual activity ([11]; compound 10.0 µM): 103% | residual activity ([12]; compound 0.1 µM): 103% | residual activity ([12]; compound 1.0 µM): 114% | residual activity ([12]; compound 10.0 µM): 104% | residual activity ([13]; compound 0.1 µM): 93% | residual activity ([13]; compound 1.0 µM): 105% | residual activity ([13]; compound 10.0 µM): 94% | residual activity ([14]; compound 1.0 µM): 116% | residual activity ([14]; compound 10.0 µM): 111% | residual activity ([15]; compound 0.1 µM): 91% | residual activity ([15]; compound 1.0 µM): 95% | residual activity ([15]; compound 10.0 µM): 101% | residual activity ([16]; compound 0.1 µM): 86% | residual activity ([16]; compound 1.0 µM): 91% | residual activity ([16]; compound 10.0 µM): 73% | residual activity ([17]; compound 0.1 µM): 104% | residual activity ([17]; compound 1.0 µM): 106% | residual activity ([17]; compound 10.0 µM): 74% | residual activity ([18]; compound 0.1 µM): 107% | residual activity ([18]; compound 1.0 µM): 103% | residual activity ([18]; compound 10.0 µM): 84% | residual activity ([19]; compound 0.1 µM): 96% | residual activity ([19]; compound 1.0 µM): 83% | residual activity ([19]; compound 10.0 µM): 64% | residual activity ([20]; compound 0.1 µM): 115% | residual activity ([20]; compound 1.0 µM): 78% | residual activity ([20]; compound 10.0 µM): 34% | residual activity ([21]; compound 0.1 µM): 83% | residual activity ([21]; compound 1.0 µM): 84% | residual activity ([21]; compound 10.0 µM): 84% | residual activity ([22]; compound 0.1 µM): 92% | residual activity ([22]; compound 1.0 µM): 92% | residual activity ([22]; compound 10.0 µM): 88% | residual activity ([23]; compound 0.1 µM): 88% | residual activity ([23]; compound 10.0 µM): 42% | residual activity ([24]; compound 0.1 µM): 101% | residual activity ([24]; compound 1.0 µM): 92% | residual activity ([24]; compound 10.0 µM): 92% | residual activity ([25]; compound 0.1 µM): 97% | residual activity ([25]; compound 1.0 µM): 93% | residual activity ([25]; compound 10.0 µM): 95% | residual activity ([26]; compound 0.1 µM): 106% | residual activity ([26]; compound 1.0 µM): 102% | residual activity ([26]; compound 10.0 µM): 100% | residual activity ([27]; compound 0.1 µM): 85% | residual activity ([27]; compound 1.0 µM): 90% | residual activity ([27]; compound 10.0 µM): 92% | residual activity ([28]; compound 0.1 µM): 99% | residual activity ([28]; compound 10.0 µM): 66% | residual activity ([29]; compound 0.1 µM): 104% | residual activity ([29]; compound 1.0 µM): 110% | residual activity ([29]; compound 10.0 µM): 70% | residual activity ([30]; compound 0.1 µM): 91% | residual activity ([30]; compound 10.0 µM): 91% | residual activity ([31]; compound 1.0 µM): 103% | residual activity ([31]; compound 10.0 µM): 83%
